The values that follow come from patent US20190178896A1, “MARKER FOR THE CLASSIFICATION, DIAGNOSIS AND TREATMENT OF SCOLIOSIS” (Chu Sainte-Justine, priority 2013, published 2019).

Structures can show the parent of a compound that is named as a salt. Where two headings read alike, the source gives them in different places.

In test [1] the test system is Gs and Gq proteins. Nature of the test: Gs and Gq siRNA knockdown effect on impedance signature of GiPCR agonists in osteoblasts. It counts as cell-based, human. The method, then:
Osteoblasts from control subjects and AIS patients of each functional group were transfected with scramble siRNA, Gs siRNA, or Gq siRNA. Efficiency of siRNA in control and AIS groups was verified with qPCR and Western blot analyses 48 hours after transfection, and response to stimulation with GiPCR agonist of cluster I, cluster II, cluster III and cluster IV was evaluated by challenging cells with 10 μM of (FIG. 14A-14D) LPA, (FIG. 14EA-14H) CB65, (FIG. 14I-14L) Somatostatin and (FIG. 14M-14P) Apelin-17, respectively. […] The impedance represented in y-axis as dziec was measured every 2 sec. Data are representative of impedance signatures generated by CellKey™ system in osteoblasts from 12 individuals tested three times in duplicate for each group.;
All Gi1, Gi2, Gi3, Gs and scrambled siRNA were obtained from Ambion (Ambion USA). The sequences used for gene silencing are shown in supplemental Table 3. Osteoblasts from control subjects and AIS patients were transiently transfected in serum-free medium, using Lipofectamine RNAiMAX reagent (Invitrogen) according to the manufacturer's instructions and functional experiments were performed 48 h post transfection. The gene knockdown was evaluated by quantitative real-time PCR (qPCR).
The possibility that the disparity in the shape of impedance among AIS groups in response to GiPCR activation implicates a component of Gs or Gq proteins-dependent response was then […] examined For this purpose, the small interference RNA (siRNA) approach was used to knockdown Gs or Gq proteins prior to stimulate cells.

In test [2] the test system is osteoblasts from control and AIS patients. Description: cells. The method, then:
The targeted endogenous receptors are shown in parentheses. The impedance represented in y-axis as dziec was measured by the Cellkey™ system every 2 sec. Data are representative of impedance signature in osteoblasts from 12 individuals tested three times in duplicate for each group;
A total of ten compounds were tested and the representative refraction index curves generated by each of these compounds in control and AIS osteoblasts are illustrated in FIGS. 10A-10J).

Test [3] has as its system PBMCs from patients with IS. Nature of the test: Effect of rOPN on cellular response to Gi stimulation (somatostatin) in PBMCs, CDS-based system. It counts as cell-based, human. The conditions noted are these: 0.5 μg/mL rOPN 18 h, 10 μM somatostatin. The method, then:
Cells were serum-starved for 18 h in the presence or absence of 0.5 μg/mL rOPN and then stimulated with 10 μM of somatostatin to initiate Gi-mediated cellular response. Data in the graph were generated from maximum-minimum impedance and correspond to the average of response in duplicate;
3. Functional Assay: Day 1: 1. Place PBMCs aliquot from liquid nitrogen in water bath at 37° C. for a minute or until defrosted. 2. Transfer the cell suspension to a 50 mL tube with a sterile pipette. 3. Add 15 mL of Complete media and spin the cells down at 200×g for 5 minutes at room temperature. 4. Remove the supernatant by aspiration. 5. Gently suspend cell pellet in 1 mL of PHA media. 6. Complete the volume to 20 mL with the same media. 7. Cap the tube loosely to allow air to enter. 8. Leave the tube overnight at 37 ° C. in a CO2 incubator to allow quiescent lymphocytes to transform into rapidly-proliferating lymphoblasts.
Day 2: 1. Take the tube out of the incubator, screw the caps completely and spin the cells down at 200×g for 5 min at room temperature. 2. Remove the supernatant by aspiration. 3. Gently suspend cell pellet in 1 mL of complete media. 4. Complete the volume to 20 mL with the same media. 5. Cap the tube loosely to allow air to enter. 6. Leave the tube overnight at 37° C. in a CO2 incubator to expand cell numbers.
Day 3: 1. Take the tube out of the incubator, screw the caps completely and spin the cells down at 200×g for […] at room temperature. 2. Remove the supernatant by aspiration. 3. Wash cells twice with 10 mL of RPMI-1640 (media developed for growing human normal and neoplastic leukocytes (peripheral blood lymphocytes)) by centrifugation at 200×g for […] at room temperature. 4. Gently re-suspend the cell pellet in 600 μL of RPMI-1640. 5. Measure the cell concentration and viability, using an automated cell counter and viability analyzer. 6. Add appropriate volume of RPMI-1640 to adjust to a cell concentration of 1.5×10^5 cell/20 μL. 7. Treat cells with recombinant OPN (rOPN) or vehicle (PBS). 7.1 Transfer 100 μL of cell suspension to two sterile 1.5 ml eppendorf tubes. […]

The mark [4] stands for this setting: Homo sapiens, Osteoblast, read-out: Control EC50 (nM).
Setting [5] is: Homo sapiens, Osteoblast, read-out: FG1 EC50 (nM).
Where [6] appears, read: Homo sapiens, Osteoblast, read-out: FG2 EC50 (nM).
Setting [7] is: Homo sapiens, Osteoblast, read-out: FG3 EC50 (nM).

For `CSCC[C@H](NC(=O)[C@@H]1CCCN1C(=O)CNC(=O)[C@H](CCCCN)NC(=O)[C@H](Cc1c[nH]cn1)NC(=O)[C@H](CO)NC(=O)[C@H](CC(C)C)NC(=O)[C@H](CCCNC(=N)N)NC(=O)[C@@H]1CCCN1C(=O)[C@H](CCCNC(=N)N)NC(=O)[C@H](CCC(N)=O)NC(=O)[C@H](CCCNC(=N)N)NC(=O)[C@H](CCCNC(=N)N)NC(=O)[C@H](Cc1ccccc1)NC(=O)[C@@H](N)CCCCN)C(=O)N1CCC[C@H]1C(=O)N[C@@H](Cc1ccccc1)C(=O)O` [Apelin-17], the “Gs coupling (permissive) of agonist/GiPCR” value in test [1] (FG1), in test [1] (FG2) and in test [1] (FG3) was “Apelin-17/Gs−” in each case.

As usually defined, the EC50 is the concentration needed to bring the measured effect to its halfway point. On to `c1ccc(N2CCN(CCCOc3ccc4c(c3)OCO4)CC2)cc1` [BP554, 1-[3-(3,4-Methylenedioxyphenoxy)propyl]-4-phenyl-piperazine maleate], for which the EC50 in test [2] (setting [4]) worked out at 22.3 ± 1.7 nM; in test [2] (setting [5]) it was 22.3 ± 2.3 nM; in test [2] (setting [6]), 22.5 ± 1.6 nM; in test [2] (setting [7]), 22.4 ± 1.5 nM.

Turning to Lysophosphatidic acid [LPA], the EC50 in test [2] (read-out: Control EC50, impedance response, osteoblasts from control subjects) came out at 8.52 ± 1.5 nM; in test [2] (read-out: FG1 EC50, impedance response, osteoblasts from AIS patients of group FG1), 8.78 ± 0.6 nM; in test [2] (read-out: FG2 EC50, impedance response, osteoblasts from AIS patients of group FG2) it was 8.54 ± 1.4 nM; in test [2] (read-out: FG3 EC50, impedance response, osteoblasts from AIS patients of group FG3) it was 8.59 ± 1.2 nM. Besides, in test [1] (FG1), the “Gs coupling (permissive) of agonist/GiPCR” value is reported as “LPA/Gs+”. In addition, the “Gq coupling (permissive) of agonist/GiPCR” value in test [1] (FG2) and in test [1] (FG3) was “LPA/Gq+” throughout.

On to “OPN: recombinant human osteopontin (R & D Systems)”, for which the “reduction of response to Gi stimulation following rOPN treatment” value in test [3] (patient 370) is “less than 50%”; in test [3] (patients 345 and 382), “more than 50%”. Also, the “OPN effect on the response to Gi stimulation” value in test [3] (patients 353 and 371) is “increased the response”.

For `O=C(NC1CCCCC1)c1cn(CCN2CCOCC2)c2cc(Cl)ccc2c1=O` [CB65, N-Cyclohexyl-7-chloro-1-[2-(4-morpholinyl)ethyl]quinolin-4(1H)-one-3-carboxamide], the EC50 in test [2] (setting [4]) is 13.9 ± 1.2 nM; in test [2] (setting [5]), 14 ± 1.2 nM; in test [2] (setting [6]), 13.7 ± 1.2 nM; in test [2] (setting [7]), 13.9 ± 1.3 nM. Moreover, the “Gs coupling (permissive) of agonist/GiPCR” value in test [1] (FG1) is “CB65/Gs+”; in test [1] (FG2), “CB65/Gs−”; in test [1] (FG3) it was “CB65/Gs−”.

For `Brc1c(NC2=NCCN2)ccc2nccnc12` [UK14304, 5-bromo-N-(4,5-dihydro-1H-imidazol-2-yl)-6-quinoxalinamine], the EC50 in test [2] (setting [4]) came to 16.5 ± 2.3 nM; in test [2] (setting [5]), 18.5 ± 4.2 nM; in test [2] (setting [6]), 16.6 ± 1.6 nM; in test [2] (setting [7]), 17.8 ± 1.3 nM.

For the compound `COc1ccc2[nH]cc(CCNC(C)=O)c2c1` [Melatonin, melatonin], the 50% effective concentration (EC50) in test [2] (setting [4]) turned out to be 33.4 ± 8.4 nM; in test [2] (setting [5]) it was 42.3 ± 9.4 nM; in test [2] (setting [6]), 48.7 ± 6.4 nM; in test [2] (setting [7]), 45.8 ± 5.3 nM.

Take `CCNC(=O)[C@H]1O[C@@H](n2cnc3c(N)ncnc32)[C@H](O)[C@@H]1O` [NECA, 1-(6-Amino-9H-purin-9-yl)-1-deoxy-N-ethyl-β-D-ribofuranuronamide]: the concentration giving a half-maximal response (EC50) in test [2] (setting [4]) is 20.9 ± 2.2 nM; in test [2] (setting [5]), 20.9 ± 1.7 nM; in test [2] (setting [6]), 20.8 ± 1.2 nM; in test [2] (setting [7]) it was 22.2 ± 2.2 nM.
